Experimental data: patent US10953012B2, “Heterocyclic compounds for the inhibition of pask” (BioEnergenix LLC, priority 2011, dated 2021)

Biological target: PASK (Homo sapiens (Human), UniProt Q96RG2)
Test: PAS Kinase FRET Assay
Assay type: biochemical
Conditions: TR-FRET assay; read-out: IC50 Kinase Domain
From the text: The aim of the FRET assay is to determine the inhibition potential of test compounds on targeted kinase. This assay platform provides a homogenous screening method for measuring kinase activity by quantitating the amount of phospho-substrate in solution following a kinase reaction.
In the presence of kinase and ATP, the Ulight-peptide is phosphorylated and captured by an anti-phospho-substrate antibody, which brings the Eu chelate donor and Ulight acceptor dyes into close proximity. Upon excitation at 340 nm, the Eu chelate transfers its energy to the Ulight dye, resulting in a fluorescent light emission at 665 nm
Titration of kinase at 1 mM ATP was achieved via the following protocol. After making serial three-fold dilutions of PASK (Invitrogen) in reaction buffer across the plate; 5 μl of kinase dilution and 5 μl substrate/ATP mix were added to the wells of the white Optiplate-384 (PerkinElmer). The contents of the plate were and incubated at RT for 1 h. The reaction was stopped by adding 5 μl of stop solution to each test well followed by mixing and incubation at RT for 10 minutes. 5 μl of detection mix (detection antibody diluted in detection buffer) was added; the contents of the plate were mixed and then incubated in the dark for 1 hour at RT. The signal was recorded at TR-FRET mode (665 nm/615 nm). The results were graphed to calculate the EC50.
Titration of ATP at the EC50 concentration of kinase to determine ATP Km, app. was performed using the following method. After making serial dilutions of ATP (Invitrogen), 5 μl of ATP dilution and 5 μl substrate/kinase mix were added to the wells of the white Optiplate-384 (PerkinElmer). The contents of the plate were and incubated at RT for 1 h. The reaction was stopped by adding 5 μl of stop solution to each test well followed by mixing and incubation at RT for 10 minutes. 5 μl of detection mix (detection antibody diluted in detection buffer) was added; the contents of the plate were mixed and then incubated in the dark for 1 hour at RT. The signal was recorded at TR-FRET mode (665 nm/615 nm). The results were graphed to calculate the EC50 as the ATP Km, app.
Compound screening was done via the following method. 10 mM stock solution of test compound in DMSO was prepared by dissolving test compound in DMSO at RT for 1 hour, and then sonicating at 100% output for 8 minutes. If compound is not soluble under this condition, it was diluted to 3 mM. Kinase reaction buffer was prepared containing 10 mM MgCl2, 50 mM HEPES, 1 mM EGTA, 0.01% TWEEN-20, 2 mM DTT. Serial dilutions of the test compounds were prepared at 4×final assay concentrations using Freedom EVO200® dispensing system as follows: 12×10^−5 M, 4×10^−5 M, 1.33×10^−5 M, 4.44×10^−6 M, 1.48×10^−6 M, 4.92×10^−7 M, 1.65×10^−7 M, […], 1.82×10^−8M, 6.09×10^−9, 2.03×10^−9 M. Test compounds (2.5 μl at 4× the final assay concentration) was added to wells using Freedom EVO200® dispensing system. As a positive control, 2.5 μl of positive compound was added to assay wells, and 2.5 μl of DMSO to assay wells as vehicle control. Kinase solution was prepared in reaction buffer at 2×final assay concentration. Kinase solution (5 μl) was added to each well of the assay plate. The substrate and ATP solution was prepared in kinase reaction buffer at 4×final assay concentration. The kinase reaction was started by adding 2.5 μl of substrate+ATP mix solution to each well of the assay plate. The plate is mixed on a plate shaker; then covered and allowed to react for 2 hours in the dark at 25° C. without shaking. The reaction was stopped by adding 5 μl of stop solution to each test well followed by mixing and incubation at RT for 10 minutes in the dark. 5 μl of detection mix (detection antibody diluted in detection buffer) was added; the contents of the plate were mixed and then incubated in the dark for 1 hour at RT. The signal was recorded at TR-FRET mode (665 nm/615 nm).

Sequence of PASK (Q96RG2 999-1251): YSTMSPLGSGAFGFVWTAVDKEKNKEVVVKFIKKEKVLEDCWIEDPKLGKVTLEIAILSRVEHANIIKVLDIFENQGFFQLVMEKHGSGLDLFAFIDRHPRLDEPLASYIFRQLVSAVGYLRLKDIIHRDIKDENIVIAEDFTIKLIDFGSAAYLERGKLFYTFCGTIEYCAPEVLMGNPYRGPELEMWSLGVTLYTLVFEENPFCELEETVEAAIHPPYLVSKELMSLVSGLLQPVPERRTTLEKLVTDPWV

IC50, ≥ 10 µM:
O=c1cc(-c2ccccc2)[nH]c2c(-c3ccc(N4CCCCC4)nc3)cnn12 [Example 88, 5-Phenyl-3-(6-(piperidin-1-yl)pyridin-3-yl)pyrazolo[1,5-a]pyrimidin-7(4H)-one]

IC50, ≤ 10 µM:
Cc1nn2c(=O)cc(-c3ccc(O)cc3)[nH]c2c1-c1ccccc1 [Example 80, 5-(4-Hydroxyphenyl)-2-methyl-3-phenylpyrazolo[1,5-a]pyrimidin-7(4H)-one]
COc1ccc(-c2cnn3c(=O)cc(-c4ccc5c(c4)OCCO5)[nH]c23)cc1 [Example 82, 5-(2,3-Dihydrobenzo[b][1,4]dioxin-6-yl)-3-(4-methoxyphenyl)pyrazolo[1,5-a]pyrimidin-7(4H)-one]
Cc1nn2c(=O)cc(-c3ccc4ncccc4c3)[nH]c2c1-c1ccc(F)cc1 [Example 83, 3-(4-Fluorophenyl)-2-methyl-5-(quinolin-6-yl)pyrazolo[1,5-a]pyrimidin-7(4H)-one]
COc1ccc(-c2c(C)nn3c(=O)cc(-c4ccc5ncccc5c4)[nH]c23)cc1 [Example 84, 3-(4-Methoxyphenyl)-2-methyl-5-(quinolin-6-yl)pyrazolo[1,5-a]pyrimidin-7(4H)-one]
COc1ccc(-c2c(C)nn3c(=O)cc(-c4ccc5c(c4)OCCO5)[nH]c23)cc1 [Example 85, 5-(2,3-Dihydrobenzo[b][1,4]dioxin-6-yl)-3-(4-methoxyphenyl)-2-methylpyrazolo[1,5-a]pyrimidin-7(4H)-one]
O=c1cc(-c2ccc3c(c2)OCCO3)[nH]c2c(-c3ccc(F)cc3)cnn12 [Example 86, 5-(2,3-Dihydrobenzo[b][1,4]dioxin-6-yl)-3-(4-fluorophenyl)pyrazolo[1,5-a]pyrimidin-7(4H)-one]
Cc1nn2c(=O)cc(-c3ccc4[nH]ccc4c3)[nH]c2c1-c1ccccc1 [Example 87, 5-(1H-Indol-5-yl)-2-methyl-3-phenylpyrazolo[1,5-a]pyrimidin-7(4H)-one]
O=c1cc(-c2ccc3c(c2)OCCO3)[nH]c2c(-c3cccc(Cl)c3)cnn12 [Example 90, 3-(3-Chlorophenyl)-5-(2,3-dihydrobenzo[b][1,4]dioxin-6-yl)pyrazolo[1,5-a]pyrimidin-7(4H)-one]
O=c1cc(-c2ccc3c(c2)OCCO3)[nH]c2c(-c3ccc(Br)cc3)cnn12 [Example 104, 3-(4-Bromophenyl)-5-(2,3-dihydrobenzo[b][1,4]dioxin-6-yl)pyrazolo[1,5-a]pyrimidin-7(4H)-one]
O=c1cc(-c2ccccc2)[nH]c2c(-c3ccc(O)nc3)cnn12 [Example 105, 3-(6-Hydroxypyridin-3-yl)-5-phenylpyrazolo[1,5-a]pyrimidin-7(4H)-one]
COc1ccc(-c2cnn3c(=O)cc(-c4ccccc4)[nH]c23)cn1 [Example 112, 3-(6-Methoxypyridin-3-yl)-5-phenylpyrazolo[1,5-a]pyrimidin-7(4H)-one]
O=C(O)c1cnn2c(=O)cc(-c3ccc4c(c3)OCCO4)[nH]c12 [Example 115, 5-(2,3-Dihydrobenzo[b][1,4]dioxin-6-yl)-7-oxo-4,7-dihydropyrazolo[1,5-a]pyrimidine-3-carboxylic acid]
O=c1cc(-c2ccc3c(c2)OCCO3)[nH]c2c(-c3ccc(N4CCOCC4)nc3)cnn12 [Example 118, 5-(2,3-Dihydrobenzo[b][1,4]dioxin-6-yl)-3-(6-morpholinopyridin-3-yl)pyrazolo[1,5-a]pyrimidin-7(4H)-one]
O=c1cc(-c2ccc(Cl)cc2Cl)[nH]c2c(-c3ccccn3)cnn12 [Example 124, 5-(2,4-Dichlorophenyl)-3-(pyridin-2-yl)pyrazolo[1,5-a]pyrimidin-7(4H)-one]
O=c1cc(-c2ccc(Cl)cc2)[nH]c2c(Cc3ccccc3)cnn12 [Example 132, 3-benzyl-5-(4-chlorophenyl)pyrazolo[1,5-a]pyrimidin-7(411)-one]
CCCc1cnn2c(=O)cc(-c3ccc4c(c3)OCO4)[nH]c12 [Example 134, 5-(Benzo[d][1,3]dioxol-5-yl)-3-propylpyrazolo[1,5-a]pyrimidin-7(4H)-one]
COc1cc(Cl)ccc1-c1cc(=O)n2ncc(-c3ccccn3)c2[nH]1 [Example 136, 5-(4-Chloro-2-methoxyphenyl)-3-(pyridin-2-yl)pyrazolo[1,5-a]pyrimidin-7(4H)-one]
COc1nn2c(=O)cc(-c3ccc(Cl)cc3)[nH]c2c1C#N [Example 138, 5-(4-Chlorophenyl)-2-methoxy-7-oxo-4,7-dihydropyrazolo[1,5-a]pyrimidine-3-carbonitrile]
N#Cc1c(O)nn2c(=O)cc(-c3ccc(Cl)cc3)[nH]c12 [Example 139, 5-(4-Chlorophenyl)-2-hydroxy-7-oxo-4,7-dihydropyrazolo[1,5-a]pyrimidine-3-carbonitrile]
CS(=O)(=O)c1ccc(-c2cc(=O)n3ncc(-c4ccccn4)c3[nH]2)cc1 [Example 140, 5-(4-(Methylsulfonyl)phenyl)-3-(pyridin-2-yl)pyrazolo[1,5-a]pyrimidin-7(4H)-one]
O=C(c1cnn2c(=O)cc(-c3ccc4c(c3)OCCO4)[nH]c12)N1CCCC1 [Example 146, 5-(2,3-Dihydrobenzo[b][1,4]dioxin-6-yl)-3-(pyrrolidine-1-carbonyl)pyrazolo[1,5-a]pyrimidin-7(4H)-one]
Nc1nn2c(=O)cc(-c3cc4ccccc4o3)[nH]c2c1-c1ccccn1 [Example 151, 2-Amino-5-(benzofuran-2-yl)-3-(pyridin-2-yl)pyrazolo[1,5-a]pyrimidin-7(4H)-one]
Nc1nn2c(=O)cc(-c3ccc(Cl)c(Cl)c3)[nH]c2c1-c1ccccn1 [Example 153, 2-Amino-5-(3,4-dichlorophenyl)-3-(pyridin-2-yl)pyrazolo[1,5-a]pyrimidin-7(4H)-one]
O=c1cc(-c2ccccc2)[nH]c2c(-c3cccnc3)c(O)nn12 [Example 154, 2-Hydroxy-5-phenyl-3-(pyridin-3-yl)pyrazolo[1,5-a]pyrimidin-7(4H)-one]
COc1nn2c(=O)cc(-c3ccc4c(c3)OCO4)[nH]c2c1-c1ccccn1 [Example 157, 5-(Benzo[d][1,3]dioxol-5-yl)-2-methoxy-3-(pyridin-2-yl)pyrazolo[1,5-a]pyrimidin-7(4H)-one]
O=c1cc(-c2ccc(Cl)cc2F)[nH]c2c(-c3ccccn3)cnn12 [Example 162, 5-(4-Chloro-2-fluorophenyl)-3-(pyridin-2-yl)pyrazolo[1,5-a]pyrimidin-7(4H)-one]
Nc1nn2c(=O)cc(-c3ccc4occc4c3)[nH]c2c1-c1ccccn1 [Example 165, 2-Amino-5-(benzofuran-5-yl)-3-(pyridin-2-yl)pyrazolo[1,5-a]pyrimidin-7(4H)-one]
Cc1coc2ccc(-c3cc(=O)n4nc(N)c(-c5ccccn5)c4[nH]3)cc12 [Example 166, 2-Amino-5-(3-methylbenzofuran-5-yl)-3-(pyridin-2-yl)pyrazolo[1,5-a]pyrimidin-7(4H)-one]
Cc1coc2ccc(-c3cc(=O)n4ncc(-c5ccccn5)c4[nH]3)cc12 [Example 167, 5-(3-Methylbenzofuran-5-yl)-3-(pyridin-2-yl)pyrazolo[1,5-a]pyrimidin-7(4H)-one]
Cc1coc2ccc(-c3cc(=O)n4nc(O)c(-c5ccccn5)c4[nH]3)cc12 [Example 168, 2-Hydroxy-5-(3-methylbenzofuran-5-yl)-3-(pyridin-2-yl)pyrazolo[1,5-a]pyrimidin-7(4H)-one]
